Consider 21 molecules from patent publication US20240150293A1, “SPIROCYCLOHEXANE DERIVATIVES, PHARMACEUTICAL COMPOSITIONS CONTAINING THEM AND THEIR USES AS ANTI-APOPTOTIC INHIBITORS” (LES LABORATOIRES SERVIER, priority 2021, published 2024).

Read-outs that look alike come from different tables or passages of the source.

Usually Ki stands for a measure of affinity in units of concentration, obtained from inhibition or displacement.

For test [1], the target named is Cy5-labelled Mcl1 (amino acids 171-321) C286S protein (UniProtKB Q07820) (Homo sapiens (Human), UniProt Q07820, C286S). As to the kind of experiment: Inhibition of Mcl-1 by the fluorescence quenching assay (Example A, Method B). Format: binding. The gist of the method: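 Cy5-labelled Mcl1 171-321 C286S (1 nM) quenched by TQ5WS-labelled PUMA peptide (10, 20 or 400 nM); displacement raises fluorescence (Ex 620/Em 680 nm). Buffer 10 mM HEPES, 150 mM NaCl, 0.05% Tween 20, pH 7.4, 5% DMSO; 2 h at room temperature, 11-point curves, IC50 converted to Ki (cKi/eKi).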

Test [2] concerns H929 multiple myeloma tumor line. The test can be described thus: In vitro cytotoxicity, MTT assay (Example B, Method A). Type of test: cell-based. The note with it: H929 cells, 48 hours exposure, read-out: C50. As to the method:
The cytotoxicity studies were carried out on the H929 multiple myeloma tumor line.
The cells are distributed onto microplates and exposed to the test compounds for 48 hours. The cell viability is then quantified by a colorimetric assay, the Microculture Tetrazolium Assay (Carmichael et al, Cancer Res. 1987, 47, 939-942).
The results are expressed in C50 which means concentration corresponding to […] of effect/inhibition.
(In general: Formazan colour is commonly taken as a measure of viable cells.)

Cy5-labelled Mcl1 (amino acids 171-321) C286S protein, sequence (Q07820 171-321 C286S): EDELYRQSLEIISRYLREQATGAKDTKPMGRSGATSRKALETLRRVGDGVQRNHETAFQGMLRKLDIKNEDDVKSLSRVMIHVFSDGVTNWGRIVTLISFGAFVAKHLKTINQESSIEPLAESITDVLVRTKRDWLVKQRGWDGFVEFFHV

Regarding `COCCOc1ccc2c(c1)[C@]1(CC[C@@](Nc3cccc(Cl)c3)(C(=O)O)CC1)[C@@H](C[C@@H](C)COc1ccnc3ccsc13)C2` [Example 730, (1r,2′S,4S)-4-(3-chloroanilino)-6′-(2-methoxyethoxy)-2′-{(2R)-2-methyl-3-[(thieno[3,2-b]pyridin-7-yl)oxy]propyl}-2′,3′-dihydrospiro[cyclohexane-1,1′-indene]-4-carboxylic acid], the inhibition constant Ki in test [1] was found to be 2.1 nM. Moreover, the IC50 in test [2] (Homo sapiens, NCI-H929, 48 h) amounted to 210 nM.
For the molecule `C[C@@H](COc1ccnc2c1[C@@H](C)C(F)(F)CC2)C[C@H]1Cc2ccccc2[C@]12CC[C@@](Nc1cccc(Cl)c1)(C(=O)O)CC2` [Example 701, (1r,2′S,4S)-4-(3-chloroanilino)-2′-[(2R)-3-{[(5R)-6,6-difluoro-5-methyl-5,6,7,8-tetrahydroquinolin-4-yl]oxy}-2-methylpropyl]-2′,3′-dihydrospiro[cyclohexane-1,1′-indene]-4-carboxylic acid], the inhibition constant Ki in test [1] turned out to be 28.5 nM. In test [2] (Homo sapiens, NCI-H929, 48 h), the IC50 was 1560 nM.
Taken in the same sequence, the figures for `C[C@@H](COc1ccnc2c1[C@H](C)CCC2)CC1=Cc2ccccc2[C@]12CC[C@@](Nc1cccc(Cl)c1)(C(=O)O)CC2` [Example 646, (1r,4R)-4-(3-chloroanilino)-2′-[(2R)-2-methyl-3-{[(5R)-5-methyl-5,6,7,8-tetrahydroquinolin-4-yl]oxy}propyl]spiro[cyclohexane-1,1′-indene]-4-carboxylic acid] were 0.593 nM and 148 nM.
Taken in the same sequence, the figures for `C[C@@H](COc1ccnc2c1[C@@H](C)CC[C@@H]2C)C[C@H]1Cc2ccccc2[C@]12CC[C@@](Nc1cccc(Cl)c1)(C(=O)O)CC2` [Example 661, (1r,2′S,4S)-4-(3-chloroanilino)-2′-[(2R)-3-{[(5S,8S)-5,8-dimethyl-5,6,7,8-tetrahydroquinolin-4-yl]oxy}-2-methylpropyl]-2′,3′-dihydrospiro[cyclohexane-1,1′-indene]-4-carboxylic acid] were 80.7 nM and 4970 nM.
`C[C@@H]1CCCc2nccc(OCC(CC3=Cc4ccccc4[C@]34CC[C@@](Nc3cccc(Cl)c3)(C(=O)O)CC4)C(F)F)c21` (single isomer, unassigned) [Example 517]: the inhibitory constant (Ki) in test [1] is 4.98 nM. Moreover, the IC50 in test [2] was found to be 550 nM.
The corresponding values for `C[C@@H](COc1ccnc2c1[C@H](C)CC[C@H]2O)C[C@H]1Cc2ccccc2[C@]12CC[C@@](Nc1cccc(Cl)c1)(C(=O)O)CC2` [Example 676, (1r,2′S,4S)-4-(3-chloroanilino)-2′-[(2R)-3-{[(5R,8R)-8-hydroxy-5-methyl-5,6,7,8-tetrahydroquinolin-4-yl]oxy}-2-methylpropyl]-2′,3′-dihydrospiro[cyclohexane-1,1′-indene]-4-carboxylic acid] are 0.418 nM and 65.6 nM.
`C[C@@H](COc1ccnc2c1[C@H](C)CCC2)CC1=Cc2cc(F)c(F)cc2[C@]12CC[C@@](Nc1cccc(Cl)c1)(C(=O)O)CC2` [Example 774, (1r,4R)-4-(3-chloroanilino)-5′,6′-difluoro-2′-[(2R)-2-methyl-3-{[(5R)-5-methyl-5,6,7,8-tetrahydroquinolin-4-yl]oxy}propyl]spiro[cyclohexane-1,1′-indene]-4-carboxylic acid]: in test [1], the Ki came out at 1.42 nM. In addition, the IC50 in test [2] (Homo sapiens, NCI-H929, 48 h) came to 118 nM.
The corresponding values for `C[C@@H](COc1ccnc2ccsc12)C[C@H]1Cc2ccc(F)cc2[C@]12CC[C@@](Nc1cccc(Cl)c1)(C(=O)O)CC2` [Example 735, (1r,2′S,4S)-4-(3-chloroanilino)-6′-fluoro-2′-{(2R)-2-methyl-3-[(thieno[3,2-b]pyridin-7-yl)oxy]propyl}-2′,3′-dihydrospiro[cyclohexane-1,1′-indene]-4-carboxylic acid] are 2.55 nM and 433 nM.
Regarding `C[C@@H](COc1ccnc2c1CCCC2C(F)F)C[C@H]1Cc2ccccc2[C@]12CC[C@@](Nc1cccc(Cl)c1)(C(=O)O)CC2` (single isomer, unassigned) [Example 683], the Ki in test [1] stood at 106 nM. Besides, in test [2], the IC50 amounted to 9850 nM.
For the molecule `C[C@@H](COc1ccnc2c1[C@H](C)CCC2)CC1Cc2c(Cl)cccc2[C@]12CC[C@@](Nc1cccc(Cl)c1)(C(=O)O)CC2` (single isomer, unassigned) [Example 740], in test [1], the inhibition constant (Ki) was determined as 0.827 nM. In addition, in test [2], the IC50 came out at 45.9 nM.
Regarding `CC(C)(COc1ccnc2sccc12)CC1Cc2ccccc2C12CCC(Nc1cccc(Cl)c1)(C(=O)O)CC2` (single isomer, unassigned) [Example 622, (1r,4r)-4-(3-chloroanilino)-2′-{2,2-dimethyl-3-[(thieno[2,3-b]pyridin-4-yl)oxy]propyl}-2′,3′-dihydrospiro[cyclohexane-1,1′-indene]-4-carboxylic acid], the inhibitory constant (Ki) in test [1] was 44.6 nM. Moreover, the IC50 in test [2] (Homo sapiens, NCI-H929, 48 h) came to 17100 nM.
As for `C[C@@H](COc1ncnc2c1CCCC2)C[C@H]1Cc2ccccc2[C@]12CC[C@@](Nc1cccc(Cl)c1)(C(=O)O)CC2` [Example 637, (1r,2′S,4S)-4-(3-chloroanilino)-2′-{(2R)-2-methyl-3-[(5,6,7,8-tetrahydroquinazolin-4-yl)oxy]propyl}-2′,3′-dihydrospiro[cyclohexane-1,1′-indene]-4-carboxylic acid], in test [1], the Ki stood at 5.13 nM. In addition, the IC50 in test [2] (Homo sapiens, NCI-H929, 48 h) came to 1540 nM.
Taken in the same sequence, the figures for `CC(CC1Cc2ccccc2[C@]12CC[C@@](Nc1cccc(Cl)c1)(C(=O)O)CC2)C1CCC(=O)CC1` (single isomer, unassigned) [Example 570, (1r,4r)-4-(3-chloroanilino)-2′-[2-(4-oxocyclohexyl)propyl]-2′,3′-dihydrospiro[cyclohexane-1,1′-indene]-4-carboxylic acid] were 363 nM and 30000 nM.
Taken in the same sequence, the figures for `CC(O)c1ccc2c(c1)[C@]1(CC[C@@](Nc3cccc(Cl)c3)(C(=O)O)CC1)[C@@H](C[C@@H](C)COc1ccnc3c1[C@H](C)CC[C@H]3C)C2` (stereo partly drawn) [Example 865, (1r,2′S,4S)-4-(3-chloroanilino)-2′-[(2R)-3-{[(5R,8R)-5,8-dimethyl-5,6,7,8-tetrahydroquinolin-4-yl]oxy}-2-methylpropyl]-6′-(1-hydroxyethyl)-2′,3′-dihydrospiro[cyclohexane-1,1′-indene]-4-carboxylic acid] were 0.204 nM and 45.9 nM.
As to `CC[C@@H]1CCc2nccc(OC[C@H](C)C[C@H]3Cc4ccccc4[C@]34CC[C@@](Nc3cccc(Cl)c3)(C(=O)O)CC4)c21` [Example 612, (1r,2′S,4S)-4-(3-chloroanilino)-2′-[(2R)-3-{[(5R)-5-ethyl-6,7-dihydro-5H-cyclopenta[b]pyridin-4-yl]oxy}-2-methylpropyl]-2′,3′-dihydrospiro[cyclohexane-1,1′-indene]-4-carboxylic acid], the Ki in test [1] came to 0.565 nM. Further, the IC50 in test [2] (Homo sapiens, NCI-H929, 48 h) stood at 315 nM.
As for `C[C@@H]1CCCc2nccc(OCC(CC3Cc4ccccc4[C@]34CC[C@@](Nc3cccc(Cl)c3)(C(=O)O)CC4)C(F)F)c21` (single isomer, unassigned) [Example 519], in test [1], the Ki came to 0.909 nM. Further, in test [2], the IC50 amounted to 202 nM.
In the case of `C[C@@H](COc1ccnc2c1[C@H](C)CCC2(F)F)C[C@H]1Cc2ccccc2[C@]12CC[C@@](Nc1cccc(Cl)c1)(C(=O)O)CC2` [Example 692, (1r,2′S,4S)-4-(3-chloroanilino)-2′-[(2R)-3-{[(5R)-8,8-difluoro-5-methyl-5,6,7,8-tetrahydroquinolin-4-yl]oxy}-2-methylpropyl]-2′,3′-dihydrospiro[cyclohexane-1,1′-indene]-4-carboxylic acid], in test [1], the Ki stood at 1.75 nM. In test [2] (Homo sapiens, NCI-H929, 48 h), the IC50 amounted to 132 nM.
The corresponding values for `Cc1cncc(C)c1OC[C@H](C)C[C@H]1Cc2ccccc2[C@]12CC[C@@](Nc1cccc(Cl)c1)(C(=O)O)CC2` [Example 584, (1r,2′S,4S)-4-(3-chloroanilino)-2′-{(2R)-3-[(3,5-dimethylpyridin-4-yl)oxy]-2-methylpropyl}-2′,3′-dihydrospiro[cyclohexane-1,1′-indene]-4-carboxylic acid] are 7.03 nM and 1760 nM.
Take `CC[C@@H]1CC[C@@H](F)c2nccc(OC[C@H](C)C[C@H]3Cc4ccccc4[C@]34CC[C@@](Nc3cccc(Cl)c3)(C(=O)O)CC4)c21` [Example 697, (1r,2′S,4S)-4-(3-chloroanilino)-2′-[(2R)-3-{[(5R,8R)-5-ethyl-8-fluoro-5,6,7,8-tetrahydroquinolin-4-yl]oxy}-2-methylpropyl]-2′,3′-dihydrospiro[cyclohexane-1,1′-indene]-4-carboxylic acid]: the inhibitory constant (Ki) in test [1] was determined as 8.28 nM. Moreover, the IC50 in test [2] (Homo sapiens, NCI-H929, 48 h) was 374 nM.
Take `O=C(O)[C@]1(Nc2cccc(Cl)c2)CC[C@@]2(CC1)c1ccccc1C[C@@H]2C[C@H](COc1ccnc2ccsc12)c1ccccc1` [Example 547, (1r,2′S,4S)-4-(3-chloroanilino)-2′-{(2S)-2-phenyl-3-[(thieno[3,2-b]pyridin-7-yl)oxy]propyl}-2′,3′-dihydrospiro[cyclohexane-1,1′-indene]-4-carboxylic acid]: the inhibition constant (Ki) in test [1] amounted to 6.95 nM. Further, the IC50 in test [2] (Homo sapiens, NCI-H929, 48 h) stood at 376 nM.
As to `C[C@@H](COc1ccnc2c1[C@H](C)CCC2)CC1Cc2c(F)cccc2[C@]12CC[C@@](Nc1cccc(Cl)c1)(C(=O)O)CC2` (single isomer, unassigned) [Example 743], the inhibition constant Ki in test [1] stood at 0.463 nM. Also, the IC50 in test [2] is 110 nM.
